Source: ChEMBL document CHEMBL4680163, “Discovery of potent epidermal growth factor receptor (EGFR) degraders by proteolysis targeting chimera (PROTAC)” (Eur J Med Chem, 2020)
pIC50: −log10 of the molar value. Calls of active or inactive are those of the source. The calls are words filed in the database; no cut-off is given here.

Columns and labels:
HCC827 [1] = experiment: Antiproliferative activity against human HCC827 cells harboring EGFRDel19 mutant assessed as reduction in cell viability incubated for 72 hrs by MTT assay; format: functional, cell-based; settings: HCC827, 72 h
A-431 = experiment: Antiproliferative activity against human A-431 cells harboring EGFR assessed as reduction in cell viability incubated for 72 hrs by MTT assay; format: functional, cell-based; settings: A-431, 72 h
A549 [2] = experiment: Antiproliferative activity against human A549 cells harboring EGFR assessed as reduction in cell viability incubated for 72 hrs by MTT assay; format: functional, cell-based; settings: A549, 72 h
NCI-H1975 [3] = experiment: Antiproliferative activity against human NCI-H1975 cells harboring EGFR L858/T790M mutant assessed as reduction in cell viability incubated for 72 hrs by MTT assay; format: functional, cell-based; settings: NCI-H1975, 72 h
HCC827 [4] = experiment: (§1) Protac activity at E3 ubiquitin ligase/EGFR in human HCC827 cells assessed as increase in degradation of EGFR at 1 to 10 uM pretreated with MG-132 for 6 hrs followed by compound addition and measured after 30 hrs by Western blot analysis; format: cell-based; settings: dose 1-10 µM
HCC827 [5] = experiment: Induction of cell cycle arrest in human HCC827 cells assessed as accumulation in S phase at 1 uM incubated for 32 hrs by PI staining based flow cytometry analysis (reference value: 41.26 %); format: functional
HCC827 [6] = experiment: Protac activity at E3 ubiquitin ligase/EGFR in human HCC827 cells assessed as increase in degradation of EGFR at 1 to 10 uM pretreated with MLN-4924 for 6 hrs followed by compound addition and measured after 30 hrs by Western blot analysis; format: cell-based; settings: dose 1-10 µM
HCC827 [7] = experiment: Induction of apoptosis in human HCC827 cells assessed as necrotic cells at 1 uM incubated for 32 hrs by annexin V-FITC and PI staining based flow cytometry analysis (reference value: 7.12 %); format: functional
HCC827 [8] = experiment: as §1, with “0.1” for “1 to 10”, “(1-(6-(5-(4-(dimethylamino)piperidin-1-yl)pyridin-2-ylamino)-2-(4-fluorophenylamino)pyrido[3,4-d]pyrimidin-4-yl)piperidin-4-yl)methanol and incubated” for “MG-132”, “32” for “30”; format: cell-based
HCC827 [9] = experiment: Induction of cell cycle arrest in human HCC827 cells assessed as accumulation in G2 phase at 0.1 uM incubated for 32 hrs by PI staining based flow cytometry analysis (reference value: 8.25 %); format: functional
[10] = (§2) Protac activity at E3 ubiquitin ligase/EGFR in human HCC827 cells assessed as increase in degradation of EGFR incubated for 48 hrs by Western blot analysis; format: cell-based; settings: HCC827, 48 h
HCC827 [11] = experiment: as §2; format: cell-based
HCC827 [12] = experiment: Protac activity at E3 ubiquitin ligase/EGFR in human HCC827 cells assessed as increase in degradation of EGFR measured upto 96 hrs by Western blot analysis; format: cell-based; settings: time hrs <=96, TDE = time-dependent effect
A549 [13] = experiment: Protac activity at E3 ubiquitin ligase/EGFR in human A549 cells harboring wild type EGFR assessed as increase in degradation of EGFR at 0.1 to 10 uM incubated for 48 hrs by Western blot analysis; format: cell-based; settings: dose 0.1-10 µM
HCC827 [14] = experiment: Induction of cell cycle arrest in human HCC827 cells assessed as accumulation in G1 phase at 0.1 uM incubated for 32 hrs by PI staining based flow cytometry analysis (reference value: 50.48 %); format: functional
HCC827 [15] = experiment: Protac activity at E3 ubiquitin ligase/EGFR in human HCC827 cells assessed as increase in degradation of EGFR at 100 nM pretreated with lenalidomide for 2 hrs followed by compound addition and measured after 48 hrs by Western blot analysis; format: cell-based
HCC827 [16] = experiment: Induction of apoptosis in human HCC827 cells assessed as early apoptotic cells at 0.1 uM incubated for 32 hrs by annexin V-FITC and PI staining based flow cytometry analysis (reference value: 2.31 %); format: functional
HCC827 [17] = experiment: Induction of cell cycle arrest in human HCC827 cells assessed as accumulation in S phase at 0.1 uM incubated for 32 hrs by PI staining based flow cytometry analysis (reference value: 41.26 %); format: functional
HCC827 [18] = experiment: Induction of apoptosis in human HCC827 cells assessed as viable cells at 1 uM incubated for 32 hrs by annexin V-FITC and PI staining based flow cytometry analysis (reference value: 72.15 %); format: functional; settings: read-out: Activity
HCC827 [19] = experiment: Induction of apoptosis in human HCC827 cells assessed as late apoptotic cells at 1 uM incubated for 32 hrs by annexin V-FITC and PI staining based flow cytometry analysis (reference value: 18.02%); format: functional
NCI-H1975 [20] = experiment: Protac activity at E3 ubiquitin ligase/EGFR in human NCI-H1975 cells harboring EGFR T790M mutant assessed as increase in degradation of EGFR at 0.1 to 10 uM incubated for 48 hrs by Western blot analysis; format: cell-based; settings: dose 0.1-10 µM
HCC827 [21] = experiment: Protac activity at E3 ubiquitin ligase/EGFR in human HCC827 cells assessed as increase in degradation of EGFR at 100 nM incubated for 96 hrs by Western blot analysis relative to control; format: cell-based
HCC827 [22] = experiment: Induction of apoptosis in human HCC827 cells assessed as early apoptotic cells at 1 uM incubated for 32 hrs by annexin V-FITC and PI staining based flow cytometry analysis (reference value: 2.72%); format: functional
HCC827 [23] = experiment: Induction of cell cycle arrest in human HCC827 cells assessed as accumulation in G2 phase at 1 uM incubated for 32 hrs by PI staining based flow cytometry analysis (reference value: 8.25 %); format: functional
[24] = target: Epidermal growth factor receptor (Homo sapiens) (UniProt P00533); experiment: Inhibition of EGFR in human HCC827 cells assessed as reduction in EGFR phosphorylation incubated for 36 hrs by Western blot analysis; format: cell-based; settings: dose 0.1-1 µM
HCC827 [25] = experiment: Induction of apoptosis in human HCC827 cells assessed as late apoptotic cells at 0.1 uM incubated for 32 hrs by annexin V-FITC and PI staining based flow cytometry analysis (reference value: 14.23 %); format: functional
HCC827 [26] = experiment: Induction of apoptosis in human HCC827 cells assessed as viable cells at 0.1 uM incubated for 32 hrs by annexin V-FITC and PI staining based flow cytometry analysis (reference value: 76.79 %); format: functional; settings: read-out: Activity
HCC827 [27] = experiment: Induction of cell cycle arrest in human HCC827 cells assessed as accumulation in G1 phase at 1 uM incubated for 32 hrs by PI staining based flow cytometry analysis (reference value: 50.48 %); format: functional
HCC827 [28] = experiment: Induction of apoptosis in human HCC827 cells assessed as necrotic cells at 0.1 uM incubated for 32 hrs by annexin V-FITC and PI staining based flow cytometry analysis (reference value: 6.68 %); format: functional
HCC827 [29] = experiment: Protac activity at E3 ubiquitin ligase/EGFR in human HCC827 cells assessed as increase in degradation of EGFR at 100 nM incubated for 72 hrs by Western blot analysis relative to control; format: cell-based
HCC827 [30] = experiment: Protac activity at E3 ubiquitin ligase/EGFR in human HCC827 cells assessed as increase in degradation of EGFR at 100 nM pretreated with VHL-L for 5 hrs followed by compound addition and measured after 32 hrs by Western blot analysis; format: cell-based

Epidermal growth factor receptor (Homo sapiens), sequence (P00533 whole entry): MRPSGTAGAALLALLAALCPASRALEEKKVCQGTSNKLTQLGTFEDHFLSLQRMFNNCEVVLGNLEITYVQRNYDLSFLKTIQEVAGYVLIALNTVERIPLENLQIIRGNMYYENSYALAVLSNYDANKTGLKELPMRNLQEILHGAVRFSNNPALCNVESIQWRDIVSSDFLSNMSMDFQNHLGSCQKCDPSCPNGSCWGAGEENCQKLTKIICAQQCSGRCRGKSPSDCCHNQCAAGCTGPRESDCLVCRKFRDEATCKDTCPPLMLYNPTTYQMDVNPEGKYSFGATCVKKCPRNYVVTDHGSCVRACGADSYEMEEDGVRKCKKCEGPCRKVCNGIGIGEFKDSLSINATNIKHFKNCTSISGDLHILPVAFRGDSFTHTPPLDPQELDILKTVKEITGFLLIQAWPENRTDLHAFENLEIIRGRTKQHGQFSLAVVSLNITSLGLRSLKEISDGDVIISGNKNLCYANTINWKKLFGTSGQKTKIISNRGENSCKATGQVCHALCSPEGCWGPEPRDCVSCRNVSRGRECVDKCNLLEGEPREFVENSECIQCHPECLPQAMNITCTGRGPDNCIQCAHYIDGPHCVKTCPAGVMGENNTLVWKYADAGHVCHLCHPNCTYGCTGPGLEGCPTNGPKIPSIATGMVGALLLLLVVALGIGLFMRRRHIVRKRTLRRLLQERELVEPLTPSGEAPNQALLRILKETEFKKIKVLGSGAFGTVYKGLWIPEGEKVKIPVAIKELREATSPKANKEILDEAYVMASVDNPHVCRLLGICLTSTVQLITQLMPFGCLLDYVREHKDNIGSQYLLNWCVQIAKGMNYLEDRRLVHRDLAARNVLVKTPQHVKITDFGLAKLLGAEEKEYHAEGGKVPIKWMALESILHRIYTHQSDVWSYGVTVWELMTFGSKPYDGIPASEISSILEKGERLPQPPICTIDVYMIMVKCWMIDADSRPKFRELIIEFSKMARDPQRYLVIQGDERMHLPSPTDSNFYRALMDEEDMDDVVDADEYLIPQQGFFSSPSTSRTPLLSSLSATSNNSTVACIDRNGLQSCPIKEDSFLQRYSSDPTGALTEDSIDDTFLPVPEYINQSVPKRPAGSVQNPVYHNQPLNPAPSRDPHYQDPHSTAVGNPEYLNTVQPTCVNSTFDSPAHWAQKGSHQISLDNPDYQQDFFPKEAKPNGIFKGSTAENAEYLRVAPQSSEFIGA

Cc1ncsc1-c1ccc(CNC(=O)[C@@H]2C[C@@H](O)CN2C(=O)[C@@H](NCCOCCOCCn2cc(CN3CCN(c4ccc(Nc5cc6c(N7CCC(CO)CC7)nc(Nc7ccc(F)cc7)nc6cn5)nc4)CC3)nn2)C(C)(C)C)cc1
pIC50 (HCC827 [1]): 5.75
pIC50 (A-431): < 5.00
pIC50 (A549 [2]): < 5.00
pIC50 (NCI-H1975 [3]): < 5.00

O=C1CCC(N2Cc3c(NC(=O)CCCCCCCN4CCN(c5ccc(Nc6cc7c(N8CCC(CO)CC8)nc(Nc8ccc(F)cc8)nc7cn6)nc5)CC4)cccc3C2=O)C(=O)N1 (centres undefined)
Activity (HCC827 [4]): inactive
Activity (HCC827 [5]): 10.63%
Activity (HCC827 [6]): Active
pIC50 (HCC827 [1]): 6.74
Activity (HCC827 [7]): 9.74%
pIC50 (A-431): < 5.00
Activity (HCC827 [8]): inactive
Activity (HCC827 [9]): 6.26%
DC50 [10]: 0.0452 µM
Activity (HCC827 [11]): Dose-dependent effect
Activity (HCC827 [12]): Tde
Activity (A549 [13]): Active
Activity (HCC827 [14]): 82.95%
Activity (HCC827 [15]): inactive
pIC50 (A549 [2]): < 5.00
Activity (HCC827 [16]): 5.93%
Activity (HCC827 [17]): 10.79%
viability at 1 µM (HCC827 [18]): 35.5%
Activity (HCC827 [19]): 49.56%
Activity (NCI-H1975 [20]): Active
Emax (HCC827 [21]): 87%
Activity (HCC827 [22]): 4.16%
Activity (HCC827 [23]): 7.47%
inhibition [24]: Dose-dependent effect
Activity (HCC827 [25]): 26.38%
viability at 0.1 µM (HCC827 [26]): 59.5%
Activity (HCC827 [27]): 81.89%
Activity (HCC827 [28]): 8.21%
pIC50 (NCI-H1975 [3]): < 5.00

O=C1CCC(N2Cc3c(NC(=O)CCCCCCCn4cc(CN5CCN(c6ccc(Nc7cc8c(N9CCC(CO)CC9)nc(Nc9ccc(F)cc9)nc8cn7)nc6)CC5)nn4)cccc3C2=O)C(=O)N1 (centres undefined)
pIC50 (HCC827 [1]): 5.10
pIC50 (A-431): < 5.00
pIC50 (NCI-H1975 [3]): < 5.00

Cc1ncsc1-c1ccc(CNC(=O)[C@@H]2C[C@@H](O)CN2C(=O)[C@@H](NCCOCCOCCN2CCN(c3ccc(Nc4cc5c(N6CCC(CO)CC6)nc(Nc6ccc(F)cc6)nc5cn4)nc3)CC2)C(C)(C)C)cc1
pIC50 (HCC827 [1]): 6.47
pIC50 (A-431): 5.61
pIC50 (NCI-H1975 [3]): 5.53

Cc1ncsc1-c1ccc(CNC(=O)[C@@H]2C[C@@H](O)CN2C(=O)[C@@H](N)C(C)(C)C)cc1
pIC50 (HCC827 [1]): < 5.00

Cc1ncsc1-c1ccc(CNC(=O)[C@@H]2C[C@@H](O)CN2C(=O)[C@@H](NCCOCCOCCOCCN2CCN(c3ccc(Nc4cc5c(N6CCC(CO)CC6)nc(Nc6ccc(F)cc6)nc5cn4)nc3)CC2)C(C)(C)C)cc1
pIC50 (HCC827 [1]): 6.15
pIC50 (A-431): 5.63
pIC50 (A549 [2]): 5.19
pIC50 (NCI-H1975 [3]): 5.58

Cc1ncsc1-c1ccc(CNC(=O)[C@@H]2C[C@@H](O)CN2C(=O)[C@@H](NC(=O)CCCCCCN2CCN(c3ccc(Nc4cc5c(N6CCC(CO)CC6)nc(Nc6ccc(F)cc6)nc5cn4)nc3)CC2)C(C)(C)C)cc1
Activity (HCC827 [4]): inactive
Activity (HCC827 [5]): 7.99%
Activity (HCC827 [6]): Active
pIC50 (HCC827 [1]): 6.66
Activity (HCC827 [7]): 9.9%
pIC50 (A-431): < 5.00
Activity (HCC827 [8]): inactive
Activity (HCC827 [9]): 6.39%
DC50 [10]: 0.0348 µM
Activity (HCC827 [11]): Dose-dependent effect
Activity (HCC827 [12]): Tde
Activity (A549 [13]): Active
Activity (HCC827 [14]): 81.94%
pIC50 (A549 [2]): < 5.00
Activity (HCC827 [16]): 7.95%
Activity (HCC827 [17]): 11.67%
viability at 1 µM (HCC827 [18]): 22.4%
Activity (HCC827 [19]): 63.29%
Activity (NCI-H1975 [20]): Active
Activity (HCC827 [22]): 4.36%
Activity (HCC827 [23]): 8.86%
inhibition [24]: Dose-dependent effect
Emax (HCC827 [29]): 98%
Activity (HCC827 [25]): 25.73%
viability at 0.1 µM (HCC827 [26]): 59.7%
Activity (HCC827 [30]): inactive
Activity (HCC827 [27]): 83.15%
Activity (HCC827 [28]): 6.62%
pIC50 (NCI-H1975 [3]): < 5.00

O=C(CN1CCN(c2ccc(Nc3cc4c(N5CCC(CO)CC5)nc(Nc5ccc(F)cc5)nc4cn3)nc2)CC1)NCCC(=O)Nc1cccc2c1CN(C1CCC(=O)NC1=O)C2=O (centres undefined)
pIC50 (HCC827 [1]): 5.56
